Measured values taken from patent US5159077A, “Penam antibacterial compounds” (Hoffmann-La Roche Inc., priority 1989, dated 1992).
In brackets after ≈: the same amount, converted by molar mass. Where a name gives a salt, the structure may show the parent alone. Read-outs that look alike come from different tables or passages of the source.

What was measured:
[1] = test system: Serratia marcescens SM; assay: In vitro MIC, Broth Dilution Method; assay type: cell-based; conditions: Broth Dilution Method; Serratia marcescens SM; read-out: In Vitro MIC
Method: (§1) The diluted agents prepared in Mueller-Hinton broth were dispensed from a Dynatech MIC 2000 machine, in 100 microliter (μL) volumes into 96 well trays and used immediately or frozen at -10° to -70° C. until needed. Using a Dynatech inoculator and inoculum trays, 1.5 μL of a 10^-2 dilution of an overnight culture was added to each well of the tray. The tops of the trays were then sealed with tape, and the trays were incubated overnight at 37° C. and then examined with a viewer. The lowest concentration at which no growth was observed was considered to be the minimum inhibitory concentration (MIC).

[2] = test system: Enterobacter cloacae 5699; assay: In vitro MIC, Broth Dilution Method; assay type: cell-based
Method: as §1

[3] = test system: Proteus mirabilis 90; assay: In vitro MIC, Broth Dilution Method; assay type: cell-based
Method: as §1

[4] = test system: Escherichia coli TEM-1; assay: In vitro MIC, Broth Dilution Method; assay type: cell-based; conditions: TEM1, read-out: In Vitro MIC
Method: as §1

[5] = test system: Staphylococcus aureus Smith; assay: In vitro MIC, Broth Dilution Method; assay type: cell-based; conditions: read-out: In Vitro MIC
Method: as §1

[6] = test system: Proteus mirabilis 2; assay: In vitro MIC, Broth Dilution Method; assay type: cell-based
Method: as §1

[7] = test system: Klebsiella pneumoniae A; assay: In vitro MIC, Broth Dilution Method; assay type: cell-based; conditions: read-out: In Vitro MIC
Method: as §1

[8] = test system: Proteus vulgaris ATCC 6380; assay: In vitro MIC, Broth Dilution Method; assay type: cell-based; conditions: Proteus vulgaris, ATCC6380, read-out: In Vitro MIC
Method: as §1

[9] = test system: Escherichia coli 4; assay: In vitro MIC, Broth Dilution Method; assay type: cell-based
Method: as §1

[10] = test system: Enterobacter cloacae P99; assay: In vitro MIC, Broth Dilution Method; assay type: cell-based; conditions: P99, read-out: In Vitro MIC
Method: as §1

[11] = test system: Streptococcus pneumoniae 6301; assay: In vitro MIC, Broth Dilution Method; assay type: cell-based
Method: as §1

[12] = test system: Citrobacter freundii BS-16; assay: In vitro MIC, Broth Dilution Method; assay type: cell-based; conditions: BS16; Broth Dilution Method; Citrobacter freundii BS-16; read-out: In Vitro MIC
Method: as §1

[13] = test system: Staphylococcus aureus ATCC 29213; assay: In vitro MIC, Broth Dilution Method; assay type: cell-based; conditions: ATCC29213; Broth Dilution Method; Staphylococcus aureus ATCC 29213; read-out: In Vitro MIC
Method: as §1

[14] = test system: Pseudomonas aeruginosa ATCC 27853; assay: In vitro MIC, Broth Dilution Method; assay type: cell-based; conditions: ATCC27853; Broth Dilution Method; Pseudomonas aeruginosa ATCC 27853; read-out: In Vitro MIC
Method: as §1

[15] = test system: Pseudomonas aeruginosa Stone 130; assay: In vitro MIC, Broth Dilution Method; assay type: cell-based
Method: as §1

[16] = test system: Streptococcus faecalis ATCC 29212; assay: In vitro MIC, Broth Dilution Method; assay type: cell-based; conditions: Enterococcus faecalis, ATCC29212; Broth Dilution Method; Streptococcus faecalis ATCC 29212; read-out: In Vitro MIC
Method: as §1

[17] = test system: Streptococcus 82; assay: In vitro MIC, Agar Well Diffusion Method; assay type: cell-based, Streptococcus aureus; conditions: Agar Well Diffusion Method; Streptococcus aureus 82; read-out: In Vitro MIC
Method: (§2) In vitro antimicrobial activity was determined in BBL seed agar. Serial dilutions of the test compound were pipetted into agar wells (80 μL per well). […] For reference, see A. H. Litton, Antibiotics: Assessment of Antimicrobial Activity and Resistance, Academic Press, New York, pages 19-30 (1983).

[18] = test system: Pseudomonas aeruginosa 56; assay: In vitro MIC, Agar Well Diffusion Method; assay type: cell-based; conditions: Agar Well Diffusion Method; Pseudomonas aeruginosa 56; read-out: In Vitro MIC
Method: as §2

[19] = test system: Micrococcus luteus PCl; assay: In vitro MIC, Agar Well Diffusion Method; assay type: cell-based; conditions: Agar Well Diffusion Method; Micrococcus luteus PCl; read-out: In Vitro MIC
Method: as §2

[20] = test system: Serratia marcescens SM; assay: In vitro MIC, Agar Well Diffusion Method; assay type: cell-based; conditions: Agar Well Diffusion Method; Serratia marcescens SM; read-out: In Vitro MIC
Method: as §2

[21] = test system: Enterobacter cloacae 2952B; assay: In vitro MIC, Agar Well Diffusion Method; assay type: cell-based; conditions: Agar Well Diffusion Method; Enterobacter cloacae 2952B; read-out: In Vitro MIC
Method: as §2

[22] = test system: Streptococcus faecium ATCC 8043; assay: In vitro MIC, Agar Well Diffusion Method; assay type: cell-based; conditions: Enterococcus faecium, ATCC8043; Agar Well Diffusion Method; Streptococcus faecium ATCC 8043; read-out: In Vitro MIC
Method: as §2

[23] = test system: Proteus vulgaris 101N; assay: In vitro MIC, Agar Well Diffusion Method; assay type: cell-based; conditions: Agar Well Diffusion Method; Proteus vulgaris 101N; read-out: In Vitro MIC
Method: as §2

[24] = test system: Pseudomonas aeruginosa B; assay: In vitro MIC, Agar Well Diffusion Method; assay type: cell-based; conditions: Agar Well Diffusion Method; Pseudomonas aeruginosa B; read-out: In Vitro MIC
Method: as §2

[25] = test system: Klebsiella pneumoniae 369; assay: In vitro MIC, Agar Well Diffusion Method; assay type: cell-based; conditions: Agar Well Diffusion Method; Klebsiella pneumoniae 369; read-out: In Vitro MIC
Method: as §2

[26] = test system: Escherichia coli 1269B; assay: In vitro MIC, Agar Well Diffusion Method; assay type: cell-based; conditions: Agar Well Diffusion Method; Escherichia coli 1269B; read-out: In Vitro MIC
Method: as §2

[27] = stability of the product (remark in the preparation); assay type: physicochemical; conditions: remark on the isolated product
[28] = Broth Dilution Method, Enterobacter cloacae 5699, read-out: In Vitro MIC
[29] = Broth Dilution Method, Proteus mirabilis 90, read-out: In Vitro MIC
[30] = Broth Dilution Method, Staphylococcus aureus Smith
[31] = Proteus mirabilis, 2, read-out: In Vitro MIC
[32] = Broth Dilution Method, Klebsiella pneumoniae A
[33] = Broth Dilution Method, Escherichia coli 4, read-out: In Vitro MIC
[34] = Broth Dilution Method, Streptococcus pneumoniae 6301, read-out: In Vitro MIC
[35] = STONE130, Broth Dilution Method, Pseudomonas aeruginosa Stone 130, read-out: In Vitro MIC
[36] = Broth Dilution Method, Proteus mirabilis 2, read-out: In Vitro MIC
[37] = Escherichia coli, 4, read-out: In Vitro MIC

Row | SMILES | MIC [1] [µg/mL] | MIC [2, 28] [µg/mL] | MIC [3, 29] [µg/mL] | MIC [4] [µg/mL] | MIC [8] [µg/mL] | MIC [10] [µg/mL] | MIC [12] [µg/mL] | MIC [13] [µg/mL] | MIC [14] [µg/mL] | MIC [16] [µg/mL] | MIC [17] [µg/mL] | MIC [18] [µg/mL] | MIC [19] [µg/mL] | MIC [20] [µg/mL] | MIC [21] [µg/mL] | MIC [22] [µg/mL] | MIC [23] [µg/mL] | MIC [24] [µg/mL] | MIC [25] [µg/mL] | MIC [26] [µg/mL] | further results
1 | CCn1cc(C(=O)O)c(=O)c2cc(F)c(N3CCCN(C=N[C@@H]4C(=O)N5[C@@H]4SC(C)(C)[C@@H]5C(=O)O)CC3)cc21 [Compound G, [2S-(2α,5α,6β)]-7-[4-[[)2-Carboxy-3,3-dimethyl-7-oxo-4-thia-1-azabicyclo[3.2.0]hept-6-yl)-imino]methyl]hexahydro-1H-1,4-diazepin-1-yl]-1-ethyl-6-fluoro-1,4-dihydro-4-oxo-3-quinolinecarboxylic acid disodium salt] | 2 | 2 | 8 | 1 | 1 | 2 | 8 | 16 | 16 | 64 | 50 | 100 | 25 | 50 | 100 | > 400 | 50 | 50 | 100 | 50 | MIC [5, 30]: 2 µg/mL; MIC [6, 31]: 4 µg/mL; MIC [7, 32]: 2 µg/mL; MIC [9, 33]: 2 µg/mL; MIC [11, 34]: 2 µg/mL; MIC [15, 35]: 8 µg/mL
2 | CCn1cc(C(=O)OC)c(=O)c2cc(F)c(N3CCN(C=N[C@@H]4C(=O)N5[C@@H]4SC(C)(C)[C@@H]5C(=O)O)CC3)cc21 [Compound A] | 16 (≈ 28.6 µM) | 8 (≈ 14.3 µM) | 32 (≈ 57.2 µM) | 4 (≈ 7.15 µM) | 4 (≈ 7.15 µM) | 8 (≈ 14.3 µM) | 32 (≈ 57.2 µM) | 16 (≈ 28.6 µM) | > 128 | 32 (≈ 57.2 µM) | 7.8 (≈ 13.9 µM) | 500 (≈ 893 µM) | 31.3 (≈ 55.9 µM) | 250 (≈ 447 µM) | 62.5 (≈ 112 µM) | 250 (≈ 447 µM) | 62.5 (≈ 112 µM) | 250 (≈ 447 µM) | 125 (≈ 223 µM) | 62.5 (≈ 112 µM) | MIC [5, 30]: 2 µg/mL (≈ 3.57 µM); MIC [6, 36]: 8 µg/mL (≈ 14.3 µM); MIC [7, 32]: 16 µg/mL (≈ 28.6 µM); MIC [9, 33]: 8 µg/mL (≈ 14.3 µM); MIC ([11]; Streptococcus pneumoniae, 6301, read-out: In Vitro MIC): 1 µg/mL (≈ 1.79 µM); MIC [15, 35]: 64 µg/mL (≈ 114 µM)
3 | CC1(C)S[C@@H]2[C@H](N=CN3CCN(c4c(F)cc5c(=O)c(C(=O)O)cn(CCF)c5c4F)CC3)C(=O)N2[C@H]1C(=O)O [Compound D, 2R-(2α,5α,6β)]-7-[4-[[(2-Carboxy-3,3-dimethyl-7-oxo-4-thia-1-azabicyclo[3.2.0]hept-6-yl)amino]-methylene]-1-piperazinyl]-6,8-difluoro-1-(2-fluoroethyl)-1,4-dihydro-4-dihydro-4-oxo-3-quinoline-carboxylic acid monosodium salt] | 0.25 | 0.25 | 1 | 0.125 | 0.063 | 0.125 | 1 | 4 | 2 | 32 | 3.9 | 7.8 | 15.6 | 31.3 | 7.8 | 15.6 | 1.95 | 15.6 | 7.8 | 1.95 | MIC ([5]; Staphylococcus aureus): 0.5 µg/mL; MIC [6, 31]: 0.125 µg/mL; MIC ([7]; Klebsiella pneumoniae): 0.125 µg/mL; MIC [9, 37]: 0.125 µg/mL; MIC [11, 34]: 2 µg/mL; MIC [15, 35]: 4 µg/mL
4 | CCn1cc(C(=O)O)c(=O)c2cc(F)c(N3CCN(C=N[C@@H]4C(=O)N5[C@@H]4SC(C)(C)[C@@H]5C(=O)O)CC3)nc21 [Compound H, disodium salt] | 0.5 |  |  | 0.125 | 0.125 | 0.125 | 0.5 | 0.5 | 8 | 8 | 7.8 | 15.6 | 31.3 | 31.3 | 31.3 | 125 | 7.8 | 15.6 | 7.8 | 7.8 | stability [27]: very unstable; MIC ([2]; Enterobacter cloacae, 5699, read-out: In Vitro MIC): 0.125 µg/mL; MIC ([3]; Proteus mirabilis, 90, read-out: In Vitro MIC): 1 µg/mL; MIC [5, 30]: 0.5 µg/mL; MIC [6, 36]: 0.5 µg/mL; MIC [7, 32]: 0.25 µg/mL; MIC [9, 37]: 0.125 µg/mL; MIC [11, 34]: 2 µg/mL; MIC ([15]; Pseudomonas aeruginosa, STONE130, read-out: In Vitro MIC): 1 µg/mL
